Data as given in US9625448B2, “Double caged GABA compounds, bis-CNB-GABA” (The Trustees of Princeton University, priority 2014, dated 2017).
Entries after “also recorded” stand apart in the source; their conditions may differ. Read-outs that look alike come from different tables or passages of the source.

Experiments:
[1] = at 24 hr; prior report; cited from earlier work
GABAA receptors = details: cited from earlier work
glutamate receptors = assay: Spontaneous EPSCs / miniature AMPA currents recorded from cerebellar interneurons; assay type: cell-based
Protocol: Bis-CNB-GABA was applied in vitro. Currents were recorded from cerebellar interneurons. […] FIG. 35 (right) illustrates response traces before and after application of bis-CNB-GABA. FIG. 35 (left) illustrates summary of data. FIG. 36 illustrates effects of 1 mM bis-CNB-GABA on spontaneously evoked miniature glutamate and miniature GABA currents in cerebellar interneuron.
FIG. 37 illustrates effects of uncaging. […] Referring to FIG. 37 (bottom), the graph illustrates uncaging at 365 nm with LED in the presence of 3 mM gabazine.
As a third and final test of the synaptic effects of bis-CNB-GABA, we measured its impact on spontaneous glutamatergic postsynaptic currents (EPSCs) recorded from MLIs. Referring to FIGS. 43B and 43E, with this configuration, no change in the amplitude of the EPSCs was observed (FIG. 43B, bottom) even with concentrations of bis-CNB-GABA up to 2 mM (FIG. 43E, p=0.4, Spearman rank order correlation test).

[2] = tested on: cerebellar molecular layer interneurons; assay: Photolysis-evoked GABAergic currents in cerebellar molecular layer interneurons; assay type: cell-based
Protocol: The biological properties of our synthetic bis-CNB-GABA were evaluated using whole-cell patch recording from cerebellar molecular layer interneurons.
FIGS. 42A-42E illustrate physiological responses to photolysis of bis-CNB-GABA. FIG. 42A illustrates a cerebellar molecular layer interneuron visualized using Alexa 488 in the patch recording electrode solution. Referring to FIG. 42A, bis-CNB-GABA (0.6 mM) was photolyzed with a 405 nm laser spot in 3 different locations (indicated by 1, 2 and 3). Still referring to FIG. 42A, laser-evoked GABAergic currents are shown on the right panel. Still referring to FIG. 42A, gray traces show individual sweeps and black traces are averages. Still referring to FIG. 42A, the gray sweep at bottom indicates the laser flash (1 ms duration, intensity 5 mW) as recorded using a photodiode. FIG. 42B illustrates bis-CNB-GABA (1.4 mM) was photolyzed with a […] LED at progressively higher flash energies (0.25-1.1 mW, 5-50 ms, 1.25-55 μJ). FIG. 42C illustrates the same experiment as shown in FIG. 42B with Responses to mono-CNB-GABA (50 μM). FIG. 42D illustrates normalized current as a function of relative LED flash energies plotted on a log-log scale. FIG. 42E illustrates laser-evoked whole-cell current recorded in the absence and presence of 3 μM gabazine, a GABA receptor antagonist. Referring to FIG. 42E, a larger flash energy was used in the presence of gabazine.
Referring to FIG. 42A, molecular layer interneurons receive excitatory glutamatergic synapses, as well as inhibitory GABAergic synapses that show a pronounced level of spontaneous activity (gray traces). The effects of bis-CNB-GABA on these synaptic currents were tested.
By contrast, the relationship for mono-O-CNB-GABA was close to linear (log-log slope=1.3±0.1, n=3). For these measurements, evoked currents were normalized to the maximum current observed in the same neuron. […] These power laws are consistent with a process in which each molecule of bis-CNB-GABA must cumulatively undergo two uncaging reactions in order to release an active GABAA agonist.
To test whether bis-CNB-GABA-evoked responses resemble physiological events in their kinetics, we measured the kinetic properties of flash responses. […] This rise time is consistent with the dark reaction time (1.5 ms) for the slower cage, N-mono-CNB-GABA (Wieboldt, R.; Ramesh, D.; Carpenter, B. K; Hess, G. P. Biochemistry, 1994, 33, 1526-1533, which is incorporated herein by reference as if fully set forth). […] These rates approach those of spontaneous events and are among the fastest described for other GABA cages. […]

[3] = Absorbance spectrum / extinction coefficient; assay type: physicochemical; details: for extinction coefficient: at 262 nm
Protocol: Following successful synthesis of bis-CNB-GABA, it was necessary to quantify extinction coefficient and quantum yield. […] Referring to FIG. 32, the first was accomplished simply by taking an absorbance spectrum of the compound. Extinction coefficient was then calculated from Beer's law.

Row | Compound | conversion in the dark [1] [%] | effect on GABA-evoked currents (GABAA receptors; 200 μM) | IC50 (GABAA receptors; Molnár & Nadler, 2000, read-out: IC50, suppression of GABA-evoked IPSC currents) [µM] | IC50 (GABAA receptors; Table 2, O-CNB-GABA in hippocampal dentate neurons, read-out: IC50 in blocking synaptic GABAA currents) [µM] | activity at GABA receptors before photolysis (GABAA receptors) | effect on spontaneously-evoked AMPA currents (glutamate receptors; 1 mM (FIG. 36), FIG. 39) | effect on amplitude of miniature AMPA currents (glutamate receptors; 1.223 mM) | effect on miniature AMPA currents (glutamate receptors; 1.233 mM and 1.0 mM) | effect on spontaneous EPSC size / amplitude (glutamate receptors; all concentrations tested, up to 2 mM) | rise time of GABA-induced currents upon photolysis ([2]; FIGS. 38A-38D) | 10-90% rise time of flash responses ([2]; responses comparable in size with spontaneous IPSCs, flash 1.0 ms, n=10) [ms] | wavelength of maximal absorbance [3] [nm] | extinction coefficient ([3]; listed as Bis-CNB GABA) | extinction coefficient ([3]; listed as Bis-CNB-GABA) [M⁻¹ cm⁻¹]
1 | NCCCC(=O)OC(C(=O)O)c1ccccc1[N+](=O)[O-] (centres unmarked) [mono-CNB-GABA] | < 1 | reversibly eliminated | 28 | 28 | antagonize GABA receptors; also recorded: antagonist of GABAA receptors |  |  |  |  |  |  |  |  | 
2 | O=C(CCCNC(C(=O)O)c1ccccc1[N+](=O)[O-])OC(C(=O)O)c1ccccc1[N+](=O)[O-] (centres unmarked) [bis-CNB-GABA, 2-((4-(Carboxy(2-nitrophenyl)methoxy)-4-oxobutyl)amino)-2-(2-nitrophenyl)acetic acid] |  |  |  |  |  | no significant effect | no significant effect | no significant effect | unaffected; also recorded: no change | approximately 2 ms | 2.2±0.6 | 262 | 7,550 M^−1 cm^−1 | 7550
